According to article PMC7709805 (Biochemistry (Moscow) Supplement. Series A, Membrane and …, 2020):
Like-named read-outs stand apart in the source and are kept apart here.

Experiments:
[1] = concentrations of the order of tens of μM; cited from earlier work
[2] = system: macrophages IC-21; assay: Binding of 2-μm non-opsonized latex particles by macrophages; assay type: cell-based, mouse
[3] = system: macrophages IC-21; assay type: cell-based, mouse
[4] = system: macrophages IC-21; conditions: peptide at 50 μM, IC-21 cells, 1 h
[5] = system: hepatitis C virus; conditions: in vitro; cited from earlier work

Substance: ATVLNYYVWRDNS
- Toxicity [1]: not toxic

Substance: Ac-EWGMAVLWERNRKLKKDLKVLKMLRT-NH2 [Mut1]
- Number of particles per cell, % of the control ([2]; Mut1 at 2–10 μM, 7 independent experiments): ~ 160 % of the control
- Concentration range at which maximal stimulatory effect was observed ([2]; number of particles per cell, IC-21, 1 h at 37°C, peptide range 0.5 to 50 μM): 4 to 5 µM
- Phagocytic index relative to control ([2]; peptide at 50 μM, 7 independent experiments): returned to the control level
- Number of particles per cell, % of the control ([3]; peptide at 2 μM, cells not treated with mβCD, representative experiment (Fig. 5)): 134 % of the control
- Toxic effect on cells [4]: did not exert a toxic effect

Substance: Ac-STKLSEMLSELGNMDKASKLSRKLSR-NH2 [Mut2]
- Change in the phagocytosis index ([2]; concentration range from 0.5 to 50 μM, 6 independent experiments for each peptide): did not cause significant changes
- Toxic effect on cells [4]: not toxic

Substance: SWLRDIWDWICEVLSDFK [C5A]
- Suppression of virus production [5]: more than 5 orders of magnitude

Substance: VLNYYVW
- Toxicity [1]: not toxic

Substance: methyl-β-cyclodextrin [mβCD, reference compound]
- Cell activity, % of the control ([3]; 3.7 mM mβCD, without a peptide, representative experiment, p < 0.001): 121 % of the control
